Test results as given in patent publication US20070289032A1, “AGROBACTERIUM TRANSFORMATION OF GUAR” (SAMUEL ROBERTS NOBEL FOUNDATION, priority 2006, published 2007).

How the values were obtained:
Assay type in all cases: cell-based, Cyamopsis tetragonoloba
[1] = test system: cotyledonary node explants of guar variety Lewis; assay: Multiple shoot regeneration from cotyledonary node explants on B5 medium with growth regulators (Lewis); details: percentage of explants that formed shoots; B5 shoot initiation medium, hormone concentrations in μM
Experimental: (§1) Explant preparation. Guar seeds of two American cultivars (Lewis and Kinman; e.g. (Undersander et al., 1991) were surface sterilized in concentrated sulphuric acid for 10 min followed by four washes in ice cold sterile distilled water. Subsequently the seeds were treated with 10% commercial bleach (containing 6.0% free chlorine) for 5 min with a few drops of Tween 20 and washed thoroughly three to four times in sterile distilled water. The sterile seeds were sown in magenta boxes on MS medium (Murashige and Skoog, 1962) with 3% sucrose, 0.8% agar, pH 5.8, and germination was continued for 7-9 days under a 16 h/8 h day/night regime at 25° C. Three-four mm long cotyledonary node explants comprising the meristematic zone were excised from the seedlings and used for shoot regeneration and transformation.
(§2) Shoot regeneration. Shoot regeneration was performed in two different phases; shoot initiation and shoot elongation. For shoot initiation, […] cotyledonary node explants were cultured with the adaxial surface touching the medium in Petri plates (FIG. 1A). The explants were cultured on Gamborg's B5 medium (Gamborg et al., 1968), supplemented with 3% (w/v) sucrose, 0.8% Phyto agar (Caisson Laboratories Inc.), pH 5.8 (shoot initiation medium, SIM) with different combinations of growth regulators (Table 1). […]

[2] = test system: cotyledonary node explants of guar variety Kinman; assay: Multiple shoot regeneration from cotyledonary node explants on B5 medium with growth regulators (Kinman); details: percentage of explants that formed shoots; B5 shoot initiation medium, hormone concentrations in μM
Experimental: as §1, §2

regenerated guar shoots = assay: Root induction from regenerated guar shoots; details: regenerated guar shoots in rooting medium
Description: Root induction from the regenerated shoots. Non-transgenic shoots (two weeks old) from the shoot elongation medium were subjected to two different rooting procedures. Five 10 mm long shoots were harvested from the shoot elongation medium (SEM), the basal region was cut in order to remove any callus or necrotic tissue and the shoot ends were dipped either in a lawn of Agrobacterium rhizogenes (strain ARqua1) and transferred to root induction medium 1 (Farhaeus medium (Dazzo and Hubbell, 1982) solidified with 0.9-1.0% Gelrite) or directly transferred to root induction medium 2 (½ MS salts, Gamborg's B5 vitamins, 2.5% sucrose, 0.5-2.00 mg/l indole 3-butyric acid (IBA), agar 0.8%, pH 5.8) without any Agrobacterium rhizogenes inoculum. To prepare the A. rhizogenes lawn, a single colony was inoculated in 2 ml liquid Farhaeus medium containing 250 mg/l streptomycin in a 10 ml culture tube and cultured for 2-3 days at 28° C. on a rotary shaker. When the O.D. (600 nm) reached 1.0, 50-120 μl of the suspension was spread on a solid Farhaeus plate containing 250 mg/l streptomycin and 0.3% Gelrite. Within 3 days the bacteria formed a lawn on the plate which was subsequently used for infecting the shoot bases. Roots developed within 4 weeks and the rooted plants were transferred to the soil and grown in a growth chamber at 30° C. and 12 hrs of light.
Study of root anatomy. […]

O=C(Nc1ccccc1)Nc1cnns1 [TDZ 9.10, Thidiazuron]
Shoot morphogenesis frequency (%) in the genotype Lewis [1]: 31.67% | Shoot morphogenesis frequency (%) in the genotype Kinman [2]: 33.33%

c1ccc(CNc2ncnc3nc[nH]c23)cc1 [BAP 4.44, 6-benzylaminopurine]
Shoot morphogenesis frequency (%) in the genotype Lewis [1]: 25.89% | Shoot morphogenesis frequency (%) in the genotype Kinman [2]: 26.49%

O=C(O)CCCc1c[nH]c2ccccc12 [IBA, indole 3-butyric acid]
shoots that formed callus at the base (regenerated guar shoots): more than 90%
